Assay: Plasma pharmacokinetics, single ascending dose and food effect studies
Type: in vivo, human
Conditions: for %AUCext / AUC0 − last / AUC0−∞ / CL/F / Cmax / Vz/F / t½: mean (SD); for Tmax: median (min, max)
Description: Participants were screened up to 40 days prior to admission to the Vanderbilt Clinical Research Center (CRC). At admission, participants had baseline vital signs, clinical laboratory parameters and ECG were collected. The participants stayed overnight at the CRC, and in the morning performed the pre-dose cognitive and electrophysiological (ERP) batteries. Following completion of these batteries, pre-dose blood and urine for pharmacokinetic (PK) analysis was collected, as well as a second set of baseline vital signs. Participants then received an oral dose of VU319 or placebo with water. VU319 doses were assessed in five dose escalating cohorts of eight participants (60, 120, 240, 400 & 600 mg). The initial dose of 60 mg was chosen by allometric scaling of the highest no observed adverse effect level (NOAEL) in animal species and reduced by a safety factor of 10. The increase in doses following the initial dose of 60 mg followed a modified Fibonacci sequence. In each cohort, six participants received oral VU319 while two participants received placebo. The randomization of participants to either placebo or active VU319 was done using a randomly permuted block procedure at a ratio of 1:3 for each of five dosages of VU319. Participants were required to remain in the CRC for 36 h after dosing for the first four cohorts, and for 48 h for the 600 mg cohort and the food effect study due to the change in PK sampling (discussed more below). Cognitive and ERP batteries were performed five hours post-dose. The decision to escalate to the next dose cohort was determined by review and approval from an independent safety monitoring committee, based on the PK data, as well as the safety and tolerability data from the preceding dose level.
The food effect study was completed after the first 5 ascending cohorts, participants were dosed once in a fasted state and once following a controlled high fat breakfast. Based on the PK results of the single ascending dose cohorts (see results), the 120 mg dosage group was chosen for the food effect study. This dose was chosen as it was a low-middle dosage in which the pharmacokinetic parameters could move up or down depending on the addition of food. The food effect study consisted of twelve participants, ten of whom received oral 120 mg VU319, while the other two received placebo. The participants received VU319 or placebo on two separate visits to the Vanderbilt CRC. These visits were separated by at least 14 days to allow for washout. On one visit, participants were dosed in a fasted state, while on the other visit, participants were dosed 30 min after eating a controlled high-fat breakfast. The order of the fed/fast conditions were randomized and balanced so that half the cohort were dosed fasting first, and the other half fed first. Post-dose procedures were shifted 30 min to allow for breakfast, but otherwise all study procedures remained the same as in the ascending dose cohorts.
Blood samples (4 mL) were obtained by direct venipuncture into K2 EDTA tubes at 0.5 h pre-dose and at 0.5, 1, 1.5, 2, 2.5, 3, 5, 7, 9, 12, 24, 26, 28, 36, 48 and 144-hours post-dose. […] Urine samples for PK quantification were collected at pre-dose and 2, 5, 12, 24, 36 and 144-hours post-dose.
Determination of plasma and urine concentrations of VU319 and metabolite VU0481424 (VU424) was carried out in compliance with Good Laboratory Practice using a validated method at Illinois Institute of Technology Research Institute (IITRI) laboratories. Pharmacokinetic endpoints included the following VU319 parameters for plasma: area under the plasma concentration-time curve (AUC0 − 48); area under the plasma concentration-time curve extrapolated to infinity (AUC0−∞); percentage of the extrapolated area under the plasma concentration-time curve (%AUCextrap); maximum observed plasma concentration (Cmax); time (in hours) at which Cmax occurred (Tmax); clearance (Cl/F); elimination half-life (t1/2) and volume of distribution (Vd/F). […]

[1] = VU319 120 mg oral, fasted, food effect study
[2] = VU319 120 mg oral, fed, food effect study

For `Cn1cc2c(-c3cc(F)c(CN4Cc5ncccc5C4=O)c(F)c3)cccc2n1` [VU319], the “inter-participant variability (CV%) of Cmax, AUC0last, AUC0−∞” value (120 mg, fasted and fed conditions) was 24–38%, the “AUC under fed vs fasted conditions” value (120 mg, food effect study) was “insignificantly higher” and the “Cmax under fed vs fasted conditions, higher by” value (120 mg, food effect study) was 51%. The “dose proportionality of systemic exposure (Cmax, AUC0 − last, AUC0−∞)” value (60 to 600 mg, linear power model) was “less than dose-proportional”, the “%AUCext” value (VU319 60 mg oral, SAD) was 4.81 (6.18) % and the “AUC0 − last” value (VU319 60 mg oral, SAD) was 36.8 (10.9) µg•h/mL. The “AUC0−∞” value (VU319 60 mg oral, SAD) was 39.2 (13.3) µg•h/mL, the CL/F (VU319 60 mg oral, SAD) was 1.73 (0.71) L/h and the Cmax (VU319 60 mg oral, SAD) was 0.725 (0.209) µg/mL. For the same compound, the Vz/F (VU319 60 mg oral, SAD) was 71.8 (20.2) L, the t½ (VU319 60 mg oral, SAD) was 31.5 (13.3) h and the Tmax (VU319 60 mg oral, SAD) was 7.00 (2.50, 9.00) h. The “%AUCext” value (VU319 120 mg oral, SAD) was 6.30 (3.55) %, the “AUC0 − last” value (VU319 120 mg oral, SAD) was 60.1 (13.7) µg•h/mL and the “AUC0−∞” value (VU319 120 mg oral, SAD) was 59.0 (9.07) µg•h/mL. For the same compound, the CL/F (VU319 120 mg oral, SAD) was 2.07 (0.28) L/h, the Cmax (VU319 120 mg oral, SAD) was 0.884 (0.312) µg/mL and the Vz/F (VU319 120 mg oral, SAD) was 107 (6.4) L. The t½ (VU319 120 mg oral, SAD) was 55.4 (46.8) h, the Tmax (VU319 120 mg oral, SAD) was 5.00 (2.00, 24.0) h and the “%AUCext” value [1] was 5.86 (4.51) %. The “AUC0 − last” value [1] was 56.8 (18.0) µg•h/mL, the “AUC0−∞” value [1] was 60.7 (23.3) µg•h/mL and the CL/F [1] was 2.35 (1.15) L/h. The Cmax [1] was 0.985 (0.38) µg/mL, the Vz/F [1] was 94.4 (27.8) L and the t½ [1] was 37.4 (15.9) h. For the same compound, the Tmax [1] was 5.11 (2.50, 48.1) h, the “%AUCext” value [2] was 5.79 (4.31) % and the “AUC0 − last” value [2] was 62.5 (15.6) µg•h/mL. The “AUC0−∞” value [2] was 66.6 (19.3) µg•h/mL, the CL/F [2] was 2.01 (0.85) L/h and the Cmax [2] was 1.42 (0.344) µg/mL. For the same compound, the Vz/F [2] was 85.3 (16.4) L, the t½ [2] was 36.9 (17.0) h and the Tmax [2] was 5.02 (2.50, 8.97) h. For the same compound, the “%AUCext” value (VU319 240 mg oral, SAD) was 5.48 (6.31) %, the “AUC0 − last” value (VU319 240 mg oral, SAD) was 63.8 (18.4) µg•h/mL and the “AUC0−∞” value (VU319 240 mg oral, SAD) was 78.3 (15.2) µg•h/mL. For the same compound, the CL/F (VU319 240 mg oral, SAD) was 3.15 (0.58) L/h, the Cmax (VU319 240 mg oral, SAD) was 1.18 (0.425) µg/mL and the Vz/F (VU319 240 mg oral, SAD) was 143 (52.7) L. For the same compound, the t½ (VU319 240 mg oral, SAD) was 35.0 (14.5) h, the Tmax (VU319 240 mg oral, SAD) was 9.50 (3.00, 24.0) h and the “%AUCext” value (VU319 400 mg oral, SAD) was 11.2 (4.73) %. For the same compound, the “AUC0 − last” value (VU319 400 mg oral, SAD) was 132 (47.4) µg•h/mL, the “AUC0−∞” value (VU319 400 mg oral, SAD) was 124 (32.0) µg•h/mL and the CL/F (VU319 400 mg oral, SAD) was 3.42 (0.96) L/h. The Cmax (VU319 400 mg oral, SAD) was 1.72 (0.447) µg/mL, the Vz/F (VU319 400 mg oral, SAD) was 219 (21.6) L and the t½ (VU319 400 mg oral, SAD) was 46.2 (9.54) h. The Tmax (VU319 400 mg oral, SAD) was 5.98 (2.02, 48.2) h, the “%AUCext” value (VU319 600 mg oral, SAD) was 5.73 (2.41) % and the “AUC0 − last” value (VU319 600 mg oral, SAD) was 207 (47.1) µg•h/mL. The “AUC0−∞” value (VU319 600 mg oral, SAD) was 221 (54.6) µg•h/mL, the CL/F (VU319 600 mg oral, SAD) was 2.87 (0.77) L/h and the Cmax (VU319 600 mg oral, SAD) was 2.81 (0.64) µg/mL. For the same compound, the Vz/F (VU319 600 mg oral, SAD) was 123 (23.8) L, the t½ (VU319 600 mg oral, SAD) was 30.4 (4.37) h and the Tmax (VU319 600 mg oral, SAD) was 5.01 (2.00, 48.0) h. For the same compound, the “plasma half-life (initial findings)” value (first SAD cohorts, reason for changed sampling times) was > 30 h and the “dose proportionality of systemic exposure” value (higher doses, 240 to 600 mg) was “approximately proportional to dose”.
